Measurements reported in US5210089A, “D-rhamnono-1,5-lactone” (Monsanto Company, priority 1992, dated 1993).
Entries after “also recorded” stand apart in the source; their conditions may differ.

What was measured:
Assay type in all cases: biochemical
[1] = test system: α-rhamnosidase (naringinase); assay: Naringinase assay with p-nitrophenyl α-L-rhamnoside; conditions: for Inhibition (%) at 1 mM, α-rhamnosidase (naringinase): 1 mM compound, p-nitrophenyl α-L-rhamnoside 1.75 mM
Experimental: (§1) Melting points were recorded on a Kofler hot block. Proton nuclear magnetic resonance (δH) spectra were recorded on Varian Gemini 200 (at 200 MHz), Bruker WH 300 (300 MHz), or Bruker AM 500 (500 MHz) spectrometers. Carbon nuclear magnetic resonance (δC) spectra were recorded on a Varian Gemini 200 (50 MHz) or a Bruker 250 (62.9 MHz) spectrometer. Multiplicities were assigned using DEPT sequence on the Gemini and by off resonance decoupling on the Bruker. Spectra run in D2 O were referenced to methanol as an internal standard. All chemical shifts are quoted on the δ-scale. Infrared spectra were recorded on a Perkin-Elmer 297, or on a Perkin-Elmer 781 spectrophotometer. Mass spectra were recorded on VG Micromass 30F, ZAB lF, Masslab 20-250 or Trio-1 GCMS (DB-5 column) spectrometers using desorption chemical ionization (NH3 DCI), electron impact (EI), chemical ionization (NH3 CI) and fast atom bombardment (FAB) techniques, as stated. […] Concentrations were given in g/100 ml. Hydrogenations were run under an atmosphere of hydrogen gas maintained by inflated balloon. Microanalyses were performed by the microanalysis service of the DysonPerrins laboratory, Oxford UK. Thin layer chromatography (t.l.c.) was carried out on aluminum sheets coated with 60F254 silica. Plates were developed using either 5% v/v concentrated sulphuric acid in methanol, 0.2% w/v cerium (IV) sulphate and 5% ammonium molybdate in 2M sulphuric acid and 0.5% ninhydrin in methanol. Flash chromatography was carried out using Sorbsil C60 40/60 silica. Ion-exchange chromatography was performed using Dowex 50W-X8 (H) and Sigma CG 400 (Cl) resins. The resins were washed with 2M hydrochloric acid and 2M sodium hydroxide solution, respectively, and subsequently with distilled water, prior to use. Solvents and commercially available reagents were dried and purified before use according to standard procedures; dichloromethane was refluxed over and distilled from calcium hydride, N,N-dimethylformamide was distilled under reduced pressure from calcium hydride, methanol was distilled from magnesium methoxide, pyridine was distilled from, and stored over, potassium hydroxide and tetrahydrofuran was distilled from a purple solution of sodium benzophenone ketyl immediately before use. Hexane was distilled at 68° C. before use to remove involatile fractions. 2,3-O-Isopropylidene-L-gulono-1,4-lactone (9) [H. Ogura et al., J. Oro. Chem. 37, 72 (1972); G. W. J. Fleet Tetrahedron 45, 319 (1989)]and 2,3-O-isopropylidene-D-gulono-1,4-lactone (15) [L. M. Lerner et al., J. Org. Chem. 33, 1780 (1968)]were prepared from D- and L-Chem. gulonolactones [purchased from the Sigma Chemical Company] as reported previously. See, e.g., Fleet, U.S. Pat. No. 4,861,892. Human liver glycosidases were assayed in the absence and presence [1 mM] of each of the compounds using the appropriate buffered 4-methylumbellifeeryl-glycosides as substrates, as described previously. [B. Winchest et al., Biochem. J. 265, 277 (1990)]. Naringinase was assayed using pnitrophenyl α-L-rhamnoside (1.75 mM) as substrates, according to Romero [C. Romero et al., Anal. Biochem. 149, 566 (1985)].
(§2) The enzymes included human liver glycosidases and naringinase. The latter enzyme is a readily available endo-L-rhamnosidase described by Romero et al., Anal. Biochem. 149, 566 (1985).

[2] = target: T1, Lysosomal α-mannosidase (Homo sapiens, UniProt O00754); assay: Human liver glycosidase assay, lysosomal α-mannosidase; design: human liver extracts; from tissue; host or cells: human liver extracts; conditions: for inhibition at 1000 µM: 1 mM compound, 4-methylumbelliferyl-glycoside substrate; for inhibition at 1000 µM / IC50: human liver; for IC50: read-out: I50, lysosomal α-mannosidase
T1 sequence (O00754 50-1011): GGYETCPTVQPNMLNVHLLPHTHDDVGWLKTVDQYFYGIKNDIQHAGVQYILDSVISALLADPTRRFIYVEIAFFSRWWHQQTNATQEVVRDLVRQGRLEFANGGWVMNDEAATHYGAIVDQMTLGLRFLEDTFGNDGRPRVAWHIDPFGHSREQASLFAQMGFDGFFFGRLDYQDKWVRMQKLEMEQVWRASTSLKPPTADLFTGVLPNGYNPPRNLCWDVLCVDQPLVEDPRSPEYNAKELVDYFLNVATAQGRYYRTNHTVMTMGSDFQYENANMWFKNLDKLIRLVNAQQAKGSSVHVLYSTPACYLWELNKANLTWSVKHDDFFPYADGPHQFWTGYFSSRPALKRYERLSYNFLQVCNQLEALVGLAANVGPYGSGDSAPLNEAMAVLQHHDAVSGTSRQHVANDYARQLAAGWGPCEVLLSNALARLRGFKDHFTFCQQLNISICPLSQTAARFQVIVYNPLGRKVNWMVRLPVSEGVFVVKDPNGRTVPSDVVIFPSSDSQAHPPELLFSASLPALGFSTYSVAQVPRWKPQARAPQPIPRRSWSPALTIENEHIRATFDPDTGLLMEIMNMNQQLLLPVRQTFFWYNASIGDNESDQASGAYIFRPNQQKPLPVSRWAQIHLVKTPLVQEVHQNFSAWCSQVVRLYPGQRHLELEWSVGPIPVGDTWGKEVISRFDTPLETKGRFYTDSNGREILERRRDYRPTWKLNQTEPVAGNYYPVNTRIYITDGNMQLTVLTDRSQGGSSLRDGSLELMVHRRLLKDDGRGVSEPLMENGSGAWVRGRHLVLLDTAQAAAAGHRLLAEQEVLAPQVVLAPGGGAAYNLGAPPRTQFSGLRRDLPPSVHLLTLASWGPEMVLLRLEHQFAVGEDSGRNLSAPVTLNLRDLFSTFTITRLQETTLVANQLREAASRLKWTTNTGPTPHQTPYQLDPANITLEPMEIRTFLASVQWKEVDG
Experimental: as §1, §2

[3] = target: T2, Lysosomal α-fucosidase (Homo sapiens, UniProt P04066); assay: Human liver glycosidase assay, lysosomal α-fucosidase; conditions: for inhibition at 1000 µM: 1 mM compound, human liver, read-out: Inhibition (%) at 1 mM, lysosomal α-fucosidase
T2 construct: human liver extracts; from tissue; host or cells: human liver extracts
T2 sequence (P04066 32-466): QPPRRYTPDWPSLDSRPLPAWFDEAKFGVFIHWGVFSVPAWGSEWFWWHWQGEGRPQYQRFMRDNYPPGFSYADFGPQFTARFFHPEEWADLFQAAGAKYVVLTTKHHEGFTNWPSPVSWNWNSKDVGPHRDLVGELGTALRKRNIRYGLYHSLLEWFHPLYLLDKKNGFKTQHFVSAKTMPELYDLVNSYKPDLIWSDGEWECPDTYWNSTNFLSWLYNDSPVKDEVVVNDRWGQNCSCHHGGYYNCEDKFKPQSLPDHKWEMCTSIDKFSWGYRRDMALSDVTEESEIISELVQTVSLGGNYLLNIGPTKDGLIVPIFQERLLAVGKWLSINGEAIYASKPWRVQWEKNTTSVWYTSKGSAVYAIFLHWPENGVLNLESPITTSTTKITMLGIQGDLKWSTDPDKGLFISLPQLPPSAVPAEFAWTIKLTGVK
Experimental: as §1, §2

Compound	Inhibition of α-rhamnosidase (in words) [1]	Inhibition (%) at 1 mM, α-rhamnosidase (naringinase) [1]	inhibition at 1000 µM [2]	IC50 [2]	Inhibition of α-mannosidase (in words) ([2]; listed as D-rhamnono-1,5-lactone)	Inhibition of α-fucosidase (in words) [3]	inhibition at 1000 µM [3]
C[C@H]1NC(=O)[C@@H](O)[C@@H](O)[C@@H]1O [D-Rhamno-1,5-lactam (6), 6-Deoxy-D-mannono-δ-lactam]	not of α-rhamnosidase	3%	86%	100 µM	inhibitor of α- and β-mannosidases; also recorded: better inhibitor of α-mannosidase than deoxymannojirimycin (1)	does not show any significant inhibition	0%
C[C@@H]1NC(=O)[C@H](O)[C@H](O)[C@H]1O [L-Rhamno-1,5-lactam (8), 6-Deoxy-L-mannono-δ-lactam]	no inhibitory activity	0%	0%	–	–	–	0%
O=C1N[C@H](CO)[C@@H](O)[C@H](O)[C@@H]1O [Mannono-1,5-lactam (2), D-mannonolactam]	–	12%	94%	50 µM	–	–	0%
